The record followed here is publication PMC5435364 (PLoS Pathogens, 2017).

In this assay the test system is Qa-1. Put plainly: Qa-1/peptide binding assay (flow cytometry-based competition with biotinylated Qdm). More on the design: species or system mouse. The note with it: Qa-1 transfected HeLa cells, 0.5 μM biotinylated Qdm + 5 or 10 μM unlabeled competing peptide, 1.5 hours at 4°C, Fig 2A. For orientation: In flow cytometry, cells or beads pass a laser one at a time.

For OT-I: negative control OT-I peptide, the “Competition with bio-Qdm for binding to Qa-1 (decrease in streptavidin-APC staining)” value is given as “unable to do so”.
